Results as given in US20250353861A1, “DERIVATIVE OF ARTEMISININ AND PREPARATION METHOD AND USE THEREOF” (SHANGHAI INNOFORTUNE BIOTECH CO. LTD., priority 2022, published 2025).

Key:
[1] = Testing of solubility at different pH values
Description: First, a series of solutions with pH-5-8 were prepared using phosphoric acid and NaOH.

[2] = tested on: corneal neovascularization in New Zealand rabbits with alkali burn; experiment: Effects on corneal neovascularization in New Zealand rabbits with alkali burn; format: in vivo; details: 1% eye drops 3 times a day; for Formation of new blood vessels in the cornea (slit-lamp photographs, FIG. 2), comparison of groups: preliminary conclusion from the figures; for Number of New Zealand rabbit eyes with appearance of fluorescein-stained spots / Number of New Zealand rabbit eyes with conjunctival congestion / Number of New Zealand rabbit eyes with corneal edema / Number of New Zealand rabbit eyes with neovascularization: 2 drops, 12 eyes per group (10 for SZY1905-P32)
Description: Twenty-four New Zealand rabbits were first given intravenous anesthesia with a chloralhydrate solution at a dose of about 0.5 mL/kg, followed by ocular surface anesthesia with 0.5% tetracaine hydrochloride eye drops. A piece of filter paper with a diameter of about 8 mm was immersed in 1 mol/L NaOH solution for 1 minute to reach saturation. The saturated filter paper was placed in the center of the cornea for 1 minute and then removed, immediately followed by repeatedly rinsing the cornea and the conjunctival sac with 0.9% sodium chloride injection for 1 minute. After that, tobramycin dexamethasone sodium phosphate eye drops were administered. After modeling, the twenty-four animals were divided into four groups, which were: Model group; SZY1905-P30 eye drops-administered group; […] The eye drops were administered 3 times a day, 2 drops each time. The Model group was not administered with any drugs. […] The cornea was then stained with fluorescein sodium, and observed under the slit-lamp microscope and photographed.

[3] = Testing of stability at different pH values (HPLC); format: physicochemical
Description: 10 mg of the sample was weighed and 10 mL of an aqueous solution at a different pH value was added, followed by ultrasonic dissolving and filtration. HPLC testing was then performed.

[4] = 1st day of the modeling (0 day of administration)
[5] = 7th day of the modeling (6th day of administration)
[6] = 14th day of the modeling (13th day of administration)

Compound	Formation of new blood vessels in the cornea (slit-lamp photographs, FIG. 2), comparison of groups [2]	Number of New Zealand rabbit eyes with appearance of fluorescein-stained spots [2, 4]	Number of New Zealand rabbit eyes with conjunctival congestion [2, 4]	Number of New Zealand rabbit eyes with corneal edema [2, 4]	Number of New Zealand rabbit eyes with neovascularization [2, 4]	Number of New Zealand rabbit eyes with appearance of fluorescein-stained spots [2, 5]	Number of New Zealand rabbit eyes with conjunctival congestion [2, 5]	Number of New Zealand rabbit eyes with corneal edema [2, 5]	Number of New Zealand rabbit eyes with neovascularization [2, 5]	Number of New Zealand rabbit eyes with appearance of fluorescein-stained spots [2, 6]	Number of New Zealand rabbit eyes with conjunctival congestion [2, 6]	Number of New Zealand rabbit eyes with corneal edema [2, 6]	Number of New Zealand rabbit eyes with neovascularization [2, 6]	Stability, 0 day (%) ([3]; Purified water, 10 mg in 10 mL)	Stability, 8th day (%) ([3]; Purified water, 10 mg in 10 mL)	Stability, 20th day (%) ([3]; Purified water, 10 mg in 10 mL)	Stability, 30th day (%) ([3]; Purified water, 10 mg in 10 mL)	Stability, 0 day (%) ([3]; pH = 5.0, 10 mg in 10 mL)	Stability, 8th day (%) ([3]; pH = 5.0, 10 mg in 10 mL)	Stability, 20th day (%) ([3]; pH = 5.0, 10 mg in 10 mL)	further results
C[C@H]1[C@H](OCCC[N+](C)(C)C)O[C@@H]2O[C@@]3(C)CC[C@H]4[C@H](C)CC[C@@H]1C24OO3 [SZY1905-P30, artemisinin quaternary ammonium propyl ether iodate]	can delay the rapid formation of new blood vessels significantly better than the SZY1905-P32 eye drops-administered group	12	2	8	0	6	0	2	3	5	0	1	4	97.09	96.91	97.04	97.28	97.23	96.90	97.01	solubility ([1]; aqueous solution adjusted with phosphoric acid and NaOH, 25 °C, pH 5, aqueous buffer): > 1000 µg/mL; solubility ([1]; aqueous solution adjusted with phosphoric acid and NaOH, 25 °C, pH 6, aqueous buffer): > 1000 µg/mL; solubility ([1]; aqueous solution adjusted with phosphoric acid and NaOH, 25 °C, pH 7, aqueous buffer): > 1000 µg/mL; solubility ([1]; aqueous solution adjusted with phosphoric acid and NaOH, 25 °C, pH 8, aqueous buffer): > 1000 µg/mL; solubility ([1]; purified water, 25 °C, water): > 10000 µg/mL; Stability, 30th day (%) ([3]; pH = 5.0, 10 mg in 10 mL): 97.25%; Stability, 0 day (%) ([3]; pH = 6.0, 10 mg in 10 mL): 97.24%; Stability, 8th day (%) ([3]; pH = 6.0, 10 mg in 10 mL): 96.95%; Stability, 20th day (%) ([3]; pH = 6.0, 10 mg in 10 mL): 96.81%; Stability, 30th day (%) ([3]; pH = 6.0, 10 mg in 10 mL): 97.23%; Stability, 0 day (%) ([3]; pH = 7.0, 10 mg in 10 mL): 97.34%; Stability, 8th day (%) ([3]; pH = 7.0, 10 mg in 10 mL): 97.09%; Stability, 20th day (%) ([3]; pH = 7.0, 10 mg in 10 mL): 96.97%; Stability, 30th day (%) ([3]; pH = 7.0, 10 mg in 10 mL): 97.26%; Stability, 0 day (%) ([3]; pH = 8.0, 10 mg in 10 mL): 97.22%; Stability, 8th day (%) ([3]; pH = 8.0, 10 mg in 10 mL): 97.13%; Stability, 20th day (%) ([3]; pH = 8.0, 10 mg in 10 mL): 96.98%; Stability, 30th day (%) ([3]; pH = 8.0, 10 mg in 10 mL): 97.13%
C[C@H]1[C@H](OCCCC[N+](C)(C)C)O[C@@H]2O[C@@]3(C)CC[C@H]4[C@H](C)CC[C@@H]1C24OO3.[I-] [SZY1905-P31, artemisinin quaternary ammonium butyl ether iodate]	can delay the rapid formation of new blood vessels significantly better than the SZY1905-P32 eye drops-administered group	12	2	9	0	7	0	3	3	6	0	3	3	98.05	97.68	97.35	97.46	98.11	97.69	97.38	solubility ([1]; Purified water, 25° C. (room temperature)): >10000 µg/mL; solubility ([1]; pH 5.0, 25° C. (room temperature)): >1000 µg/mL; solubility ([1]; pH 6.0, 25° C. (room temperature)): >1000 µg/mL; solubility ([1]; pH 7.0, 25° C. (room temperature)): >1000 µg/mL; solubility ([1]; pH 8.0, 25° C. (room temperature)): >1000 µg/mL; Stability, 30th day (%) ([3]; pH = 5.0, 10 mg in 10 mL): 97.48%; Stability, 0 day (%) ([3]; pH = 6.0, 10 mg in 10 mL): 98.16%; Stability, 8th day (%) ([3]; pH = 6.0, 10 mg in 10 mL): 97.64%; Stability, 20th day (%) ([3]; pH = 6.0, 10 mg in 10 mL): 97.39%; Stability, 30th day (%) ([3]; pH = 6.0, 10 mg in 10 mL): 97.48%; Stability, 0 day (%) ([3]; pH = 7.0, 10 mg in 10 mL): 98.26%; Stability, 8th day (%) ([3]; pH = 7.0, 10 mg in 10 mL): 97.85%; Stability, 20th day (%) ([3]; pH = 7.0, 10 mg in 10 mL): 97.57%; Stability, 30th day (%) ([3]; pH = 7.0, 10 mg in 10 mL): 97.58%; Stability, 0 day (%) ([3]; pH = 8.0, 10 mg in 10 mL): 98.14%; Stability, 8th day (%) ([3]; pH = 8.0, 10 mg in 10 mL): 97.64%; Stability, 20th day (%) ([3]; pH = 8.0, 10 mg in 10 mL): 97.33%; Stability, 30th day (%) ([3]; pH = 8.0, 10 mg in 10 mL): 97.49%
C[C@H]1[C@H](OCCCN)O[C@@H]2O[C@@]3(C)CC[C@H]4[C@H](C)CC[C@@H]1C24OO3 [SZY1905-P32, reference compound]	new vessels have spread to the entire cornea	10	1	8	0	9	0	4	6	8	0	3	7	–	–	–	–	–	–	–	–
